Test results published in patent publication US4732972A, “Polypeptides having growth hormone releasing activity” (Hoffmann-La Roche Inc., priority 1985, dated 1988).
Ends that are not written are not given here.

What was measured:
growth hormone release = details: compared with amidated 44 amino acid GRF; cited from earlier work
rat pituitary cells = test: Growth hormone release in rat pituitary cells in tissue culture (RIA for rat growth hormone); assay type: cell-based; details: for Growth Hormone Released, Percentage of Control / Growth Hormone Released: 3 hours incubation; for Growth Hormone Released: control 82
Experimental: The biological activity of (Leu^27)-GRF(1-44)-OH was compared with that of natural GRF(1-44)-NH2 which was isolated from a human pancreatic tumor of an individual suffering from acromegaly (Salk Institute standard hp-GRF-NH2 (NL-A-10)). The assay for biological activity, which is based on the ability to stimulate production of growth hormone in rat pituitary cells in tissue culture, was performed in the following manner.
Pituitaries from 30-40 male Sprague-Dawley rats (175 g) were removed aseptically after decapitation. The anterior lobes were collected, washed 3 times in sterile Hepes buffer (0.025M) (pH 7.35) and dispersed at 37° C. in 20-30-ml Hepes buffer (pH 7.35) containing collagenase (4 mg per ml) and Dispase (Protease grade II, 2 mg per ml). After gentle 100-110-min vortexing and trituration by Pasteur pipette, the dispersed cells were separated by centrifugation (150×g, 4 min) and re-suspended in Hepes buffer containing neuraminidase (8 μg/ml), and 200 μg/ml ethylenedinitrilotetraacetic acid (EDTA) disodium salt pH 7.35, for 10 min. The cells were washed twice with plating medium and plated on multiwell-plates (1.5×10^5 cells per ml) using the following defined medium: F-12/DMEM/(6:3:1) (Gibco: 430-1700/430-1600/320-2591) with 2 g BSA/l., 2.38 g Hepes/l, 50 mg Garamycin/l (Schering Co.). The medium in each well was supplemented either with (Leu^27)-GRF(1-44)-OH or natural GRF(1-44)-NH2 at concentrations ranging from 3.1 to 200 fmol. per ml. of medium. Control wells contained no supplement. Plating was done with this medium added with 2% fetal calf serum to ensure rapid fixation of the cells. On the fourth day the cells were washed twice with the defined medium without fetal calf serum. Finally 900 μl of defined medium was added to each well plus 100 μl of the same medium containing each individual treatment, in triplicate. After 3 hours of incubation the medium was collected and diluted as required to conduct radioimmunoassays (RIAs) for rat growth hormone. RIAs were conducted using Sinha's anti-murine GH immune serum.

Molecule	Biological activity after removal of the amide group (in words) (growth hormone release)	Relative potency compared to the Salk Institute standard (rat pituitary cells; computerized analysis of the data of Tables 1 and 2, standard = GRF(1-44)-NH2)	Growth hormone releasing activity compared with GRF(1-44)-NH2 (in words) (rat pituitary cells; data of Tables 1 and 2)	Growth Hormone Released, Percentage of Control (rat pituitary cells; dose 3.1 f mol./ml.)	Growth Hormone Released (rat pituitary cells; dose 3.1 f mol./ml.) [ng/mL]	Growth Hormone Released, Percentage of Control (rat pituitary cells; dose 6.3 f mol./ml.)	Growth Hormone Released (rat pituitary cells; dose 6.3 f mol./ml.) [ng/mL]	Growth Hormone Released, Percentage of Control (rat pituitary cells; dose 12.5 f mol./ml.)	Growth Hormone Released (rat pituitary cells; dose 12.5 f mol./ml.) [ng/mL]	Growth Hormone Released, Percentage of Control (rat pituitary cells; dose 25.0 f mol./ml.)	Growth Hormone Released (rat pituitary cells; dose 25.0 f mol./ml.) [ng/mL]	Growth Hormone Released, Percentage of Control (rat pituitary cells; dose 50.0 f mol./ml.)	Growth Hormone Released (rat pituitary cells; dose 50.0 f mol./ml.) [ng/mL]	Growth Hormone Released, Percentage of Control (rat pituitary cells; dose 100.0 f mol./ml.)	Growth Hormone Released (rat pituitary cells; dose 100.0 f mol./ml.) [ng/mL]	Growth Hormone Released, Percentage of Control (rat pituitary cells; dose 200.0 f mol./ml.)	Growth Hormone Released (rat pituitary cells; dose 200.0 f mol./ml.) [ng/mL]	Growth hormone released in vitro relative to the amount of peptide administered (rat pituitary cells; in vitro)
free acid form of the 44 amino acid GRF: 44 amino acid GRF with the amide group removed, free acid form (YADAIFTNSYRKVLGQLSARKLLQDIMSRQQGESNQERGARARL-OH; UniProt P01286 32-75, looked up)	significant loss of biological activity																	
CC[C@H](C)[C@H](NC(=O)[C@H](C)NC(=O)[C@H](CC(=O)O)NC(=O)[C@H](C)NC(=O)[C@@H](N)Cc1ccc(O)cc1)C(=O)N[C@@H](Cc1ccccc1)C(=O)N[C@H](C(=O)N[C@@H](CC(N)=O)C(=O)N[C@@H](CO)C(=O)N[C@@H](Cc1ccc(O)cc1)C(=O)N[C@@H](CCCNC(=N)N)C(=O)N[C@@H](CCCCN)C(=O)N[C@H](C(=O)N[C@@H](CC(C)C)C(=O)NCC(=O)N[C@@H](CCC(N)=O)C(=O)N[C@@H](CC(C)C)C(=O)N[C@@H](CO)C(=O)N[C@@H](C)C(=O)N[C@@H](CCCNC(=N)N)C(=O)N[C@@H](CCCCN)C(=O)N[C@@H](CC(C)C)C(=O)N[C@@H](CC(C)C)C(=O)N[C@@H](CCC(N)=O)C(=O)N[C@@H](CC(=O)O)C(=O)N[C@H](C(=O)N[C@@H](CC(C)C)C(=O)N[C@@H](CO)C(=O)N[C@@H](CCCNC(=N)N)C(=O)N[C@@H](CCC(N)=O)C(=O)N[C@@H](CCC(N)=O)C(=O)NCC(=O)N[C@@H](CCC(=O)O)C(=O)N[C@@H](CO)C(=O)N[C@@H](CC(N)=O)C(=O)N[C@@H](CCC(N)=O)C(=O)N[C@@H](CCC(=O)O)C(=O)N[C@@H](CCCNC(=N)N)C(=O)NCC(=O)N[C@@H](C)C(=O)N[C@@H](CCCNC(=N)N)C(=O)N[C@@H](C)C(=O)N[C@@H](CCCNC(=N)N)C(=O)N[C@@H](CC(C)C)C(=O)O)[C@@H](C)CC)C(C)C)[C@@H](C)O [(Leu^27)-GRF(1-44)-OH]		1.063	about the same level as GRF(1-44)-NH2 or slightly higher	162 Percentage of Control	133	204 Percentage of Control	167	272 Percentage of Control	223	329 Percentage of Control	270	417 Percentage of Control	342	516 Percentage of Control	423	649 Percentage of Control	532	on the order of ten times or more the amount of (Leu^27)-GRF-OH administered
